Reference: patent publication US8552069B2, “Method for treatment of obesity, dyslipidemia, fatty liver or insulin resistance syndrome comprising camphene as active ingredient” (Industry-Academic Cooperation Foundation, Yonsei University, priority 2009, dated 2013)
Marks after values point to notes of the source that are not given here.

Tests used:
[1] = system: PPARγ2; assay: RT-PCR mRNA expression in epididymal (visceral) fat tissue: PPARγ2; assay type: in vivo, mouse; conditions: as compared to the high-fat diet group, FIGS. 5a and 5b
Description: (§1) After adding 1 mL of TRIzol solution per 0.1 g of epididymal fat tissue, centrifugation was performed at 4° C. and 12,000×g for 10 minutes. The supernatant was transferred to a fresh tube and vortexed after adding 200 μL of chloroform. After repeating this procedure twice, the supernatant was transferred to a fresh tube and isopropanol was added to the supernatant at a ratio of 1:1. After shaking strongly for 10 times and keeping at room temperature for 10 minutes, centrifugation was performed at 4° C. and 12,000×g for 10 minutes. After removing the supernatant and adding 1 mL of 70% ethanol to the remaining pellets, centrifugation was performed at 4° C. and 7,500×g for 5 minutes. After removing ethanol, the RNA pellets held in the tube were dried at room temperature for 5 minutes and dissolved using nuclease-free water. The concentration of the extracted RNA was measured at 260 nm and 280 nm using a UV/VIS spectrophotometer (Beckman Coulter, DU730), and the integrity of RNA was analyzed by agarose gel electrophoresis.
(§2) cDNA was synthesized by performing reverse transcription for the RNA sample extracted from the epididymal fat tissue using oligo-dT primer and SuperScript reverse transcriptase (GIBCO BRL, Gaithersburg, Md., USA). […]

[2] = system: C/EBPα; assay: RT-PCR mRNA expression in epididymal (visceral) fat tissue: C/EBPα; assay type: in vivo, mouse; conditions: as compared to the high-fat diet group, FIGS. 5a and 5b
Description: as §1, §2

[3] = system: C57BL/6J mice; assay: Body weight and visceral fat weight of mice fed high-fat diet containing camphene; assay type: in vivo, mouse; conditions: 0.2% camphene in high-fat diet, 10 weeks
Description: (§3) The obesity-inducing diet used in this example was high-fat diet (HFD: 40% fat calorie, 17 g lard+3% corn oil/100 g diet). Camphene-containing diet had the same composition as HFD, except that camphene was included at 0.2%. Normal diet (ND) was prepared with the composition of AIN-76 rodent diet (American Institute of Nutrition, Report of the American Institute of Nutrition ad hoc committee on standards for nutritional studies. J. Nutr. 107: 1340-1348, 1977) (see Table 1). (±)-Camphene was purchased from Sigma-Aldrich. [table] 5-week-old male C57BL/6J mice (Orient, Korea) were accustomed to the laboratory environment for 1 week while feeding solid feed. Then, they were randomly divided into high-fat diet control group and test group and bred for a total of 10 weeks. The diet was given between 10 and 11 a.m. every day together with water. Diet intake was measured every day and body weight was measured once in 3 days. In order to avoid transient body weight increase after feed intake, body weight was measured 2 hours after removing the feed. Feeding efficiency was calculated by dividing accumulated body weight gain during the test period, i.e. from the test diet was given first until the day when the mouse was sacrificed, by total diet intake. After fasting the test animal for at least 12 hours and anesthetizing with diethyl ether, blood, liver and visceral fat (epididymal fat, perirenal fat, mesenteric fat and retroperitoneal fat) were taken and weighed after washing with 0.1 M PBS (pH 7.4). Blood taken from the abdominal aorta was centrifuged at 1000×g for 15 minutes to separate the serum.

[4] = system: C57BL/6J mice; assay: Obesity-related biochemical indices in blood (serum) of high-fat diet mice; assay type: in vivo, mouse; conditions: 10 weeks
Description: as §3, with “Sigma-Aldrich.” for “Sigma-Aldrich. [table]”, “serum. Total cholesterol, triglyceride and glucose levels in the serum were measured twice for each using a commercially available kit (Bio Clinical system), and insulin level was measured by ELISA using a mouse insulin kit (Shibayaki, Japan). Lipids were extracted from the liver tissue according to Folch et al.'s method. After adding 1 mL of distilled water to 0.25 g of liver tissue, the liver tissue was homogenized using a Polytron homogenizer (IKA-Werke GmbH & Co., Ultra-Turrax, Staufen, Germany). After adding 5 mL of chloroform:methanol solution (2:1, v/v) to the homogenate and mixing well, the mixture was centrifuged at 1000×g for 10 minutes. After adding 2 mL of chloroform:methanol solution (2:1, v/v) again to the supernatant, the same procedure was repeated to completely separate the lipid components of the liver. After adding 3 mL of chloroform:methanol:0.05% CaCl2 (3:48:47, v/v/v) solution to the remaining pellets and mixing well for 1 minute, followed by centrifugation at 1000×g for 10 minutes, the resulting pellets were completely dried with nitrogen gas. The dried lipids were dissolved in 1 mL of methanol and then analyzed. The same kit (Bio Clinical system) as the one used for the serum analysis was used to measure the triglyceride level of the liver tissue.” for “serum.”

[5] = system: 3T3-L1 cells; assay: Suppression of differentiation of 3T3-L1 preadipocytes into adipocytes (Oil Red O staining); assay type: cell-based, mouse; conditions: camphene 0.1, 1, 10, 50 and 100 μM, 14 days
Description: Mouse 3T3-L1 cells were used to investigate the effect of camphene on differentiation and growth of adipocytes. The preadipocytes, 3T3-L1 cells, were seeded on a 12-well plate and cultured to confluency using Dulbecco's modified Eagle's medium (DMEM) containing 1% penicillin-streptomycin, 1% nonessential amino acid and 10% fatal bovine serum (FBS), in a 5% CO2 incubator at 37° C. The 3T3-L1 cells grown to confluency were cultured for 2 days in a medium containing MDI (0.5 mM isobutylmethylxanthine, 1 μM dexamethasone and 1 μg/mL insulin) to differentiate them into adipocytes. Then, the cells were further cultivated in DMEM containing 1 μg/mL insulin to differentiate them into mature adipocytes. The cells were further cultured for 10 more days while replacing DMEM every other day to obtain fully differentiated adipocytes. From the first day when MDI was added to the 3T3-L1 cells, camphene was treated at concentrations of 0.1, 1, 10, 50 and 100 μM with 2-day intervals. (±)-Camphene purchased from Sigma-Aldrich was used after being dissolved in DMSO. Only DMSO was added to the negative control group. […] In order to measure the level of triglyceride contained in the differentiated 3T3-L1 cells, the stained lipid droplets were dissolved in 1 mL of isobutanol and OD value was measured at 600 nm.

[6] = system: NF-κB; conditions: mouse macrophage cells (RAW 264.7); cited from earlier work
[7] = system: Gram-positive bacteria, Gram-negative bacteria and fungi; conditions: cited from earlier work
[8] = system: UCP3; assay: RT-PCR mRNA expression in visceral fat tissue: UCP3; assay type: in vivo, mouse; conditions: versus HFD group, FIG. 7
Description: as §1, §2

[9] = system: TNFα; assay: RT-PCR mRNA expression in visceral fat tissue: TNFα; assay type: in vivo, mouse; conditions: versus HFD group, FIGS. 6a and 6b
Description: as §1, §2

[10] = system: C57BL/6J mice; assay: Obesity-related biochemical indices in liver tissue of high-fat diet mice; assay type: in vivo, mouse; conditions: 10 weeks
Description: as §3, with “Sigma-Aldrich.” for “Sigma-Aldrich. [table]”, “serum. Total cholesterol, triglyceride and glucose levels in the serum were measured twice for each using a commercially available kit (Bio Clinical system), and insulin level was measured by ELISA using a mouse insulin kit (Shibayaki, Japan). Lipids were extracted from the liver tissue according to Folch et al.'s method. After adding 1 mL of distilled water to 0.25 g of liver tissue, the liver tissue was homogenized using a Polytron homogenizer (IKA-Werke GmbH & Co., Ultra-Turrax, Staufen, Germany). After adding 5 mL of chloroform:methanol solution (2:1, v/v) to the homogenate and mixing well, the mixture was centrifuged at 1000×g for 10 minutes. After adding 2 mL of chloroform:methanol solution (2:1, v/v) again to the supernatant, the same procedure was repeated to completely separate the lipid components of the liver. After adding 3 mL of chloroform:methanol:0.05% CaCl2 (3:48:47, v/v/v) solution to the remaining pellets and mixing well for 1 minute, followed by centrifugation at 1000×g for 10 minutes, the resulting pellets were completely dried with nitrogen gas. The dried lipids were dissolved in 1 mL of methanol and then analyzed. The same kit (Bio Clinical system) as the one used for the serum analysis was used to measure the triglyceride level of the liver tissue.” for “serum.”

[11] = system: UCP1; assay: RT-PCR mRNA expression in visceral fat tissue: UCP1; assay type: in vivo, mouse; conditions: versus HFD group, FIG. 7
Description: as §1, §2

[12] = system: aP2; assay: RT-PCR mRNA expression in epididymal (visceral) fat tissue: aP2; assay type: in vivo, mouse; conditions: as compared to the high-fat diet group, FIGS. 5a and 5b
Description: as §1, §2

[13] = system: IL-6; assay: RT-PCR mRNA expression in visceral fat tissue: IL-6; assay type: in vivo, mouse; conditions: versus HFD group, FIGS. 6a and 6b
Description: as §1, §2

[14] = blood, camphene-administered group
[15] = liver tissue, camphene-administered group

C=C1C2CCC(C2)C1(C)C (racemic) [camphene]
PPARγ2 mRNA expression in visceral fat tissue [1]: significantly decreased expression | C/EBPα mRNA expression in visceral fat tissue [2]: significantly decreased expression | lower accumulated body weight gain as compared to HFD control group [3]: 58% | lower final body weight as compared to HFD control group [3]: 33% | lower epididymal fat weight per body weight as compared to HFD ([3]; P<0.001): 46% | lower mesenteric fat weight per body weight as compared to HFD ([3]; P<0.001): 61% | lower perirenal fat weight per body weight as compared to HFD ([3]; P<0.001): 76% | lower retroperitoneal fat weight per body weight as compared to HFD ([3]; P<0.001): 48% | lower total visceral fat weight per body weight as compared to HFD ([3]; P<0.001): 52% | lower arteriosclerotic index as compared to HFD ([4]; 0.2% camphene in high-fat diet): 59% | lower fasting blood sugar level as compared to HFD ([4]; 0.2% camphene in high-fat diet): 10% | lower insulin resistance (IRI) as compared to HFD ([4]; 0.2% camphene in high-fat diet): 40% | lower serum LDL+VLDL cholesterol level as compared to HFD ([4]; 0.2% camphene in high-fat diet): 79% | lower serum free fatty acid level as compared to HFD ([4]; 0.2% camphene in high-fat diet): 86% | lower serum insulin level as compared to HFD ([4]; 0.2% camphene in high-fat diet): 32% | lower serum total cholesterol level as compared to HFD ([4]; 0.2% camphene in high-fat diet): 60% | lower serum triglyceride level as compared to HFD ([4]; 0.2% camphene in high-fat diet): 69% | IRI (insulin resistance index) ([4]; 10^−3 pmol insulin × mmol glucose × L^−2, camphene-administered group): 1.11 ± 0.21^b | Arteriosclerotic index ([4]; (total cholesterol − HDL cholesterol)/HDL cholesterol, camphene-administered group): 0.42 ± 0.03^b | Free fatty acid [4, 14]: 197 ± 6.7^c μEq/L | HDL cholesterol [4, 14]: 1.02 ± 0.04^c mmol/L | Insulin [4, 14]: 0.85 ± 0.23^b ng/mL | LDL + VLDL cholesterol [4, 14]: 0.44 ± 0.05^b mmol/L | Total cholesterol [4, 14]: 1.55 ± 0.11^b mmol/L | Triglyceride [4, 14]: 0.44 ± 0.05^b mmol/L | Glucose ([4]; blood, fasting, camphene-administered group): 7.6 ± 0.51^ab mmol/L | differentiation of the preadipocytes (Oil Red O staining) ([5]; FIG. 1a): reduced the differentiation of the preadipocytes in a concentration-dependent manner | OD value (600 nm) of fats stained with Oil Red O ([5]; FIG. 1b): decreased in a concentration-dependent manner | activity of the inflammation-inducing factor NF-κB [6]: suppressing the activity | growth of Gram-positive bacteria, Gram-negative bacteria and fungi [7]: inhibiting growth | UCP3 gene expression in visceral fat tissue [8]: increased expression | TNFα gene expression in visceral fat tissue [9]: decreased expression of TNFα and IL-6 genes back to the level of the ND group | lower cholesterol level in the liver tissue as compared to HFD ([10]; 0.2% camphene in high-fat diet): 86% | lower free fatty acid level in the liver tissue as compared to HFD ([10]; 0.2% camphene in high-fat diet): 73% | lower liver weight per body weight as compared to HFD ([10]; 0.2% camphene in high-fat diet): 22% | lower triglyceride level in the liver tissue as compared to HFD ([10]; 0.2% camphene in high-fat diet): 58% | Liver weight ([10]; camphene-administered group): 4.3 ± 0.32^b g/100 g body wt | Cholesterol [10, 15]: 10.3 ± 2.6^c μmol/g | Free fatty acid [10, 15]: 6.5 ± 0.91^b μEq/g | Triglyceride [10, 15]: 14.7 ± 2.3^c μmol/g | UCP1 gene expression in visceral fat tissue [11]: increased expression | aP2 mRNA expression in visceral fat tissue [12]: significantly decreased expression | IL-6 gene expression in visceral fat tissue [13]: decreased expression of TNFα and IL-6 genes back to the level of the ND group
